From patent US8673889B2, “BLT2-mediated disease, BLT2 binding agent and the compound” (Ono Pharmaceutical Co., Ltd., priority 2004, dated 2014)

Legend:
Format in all cases: cell-based
mBLT2 [1] = biological target: T1, mBLT2 (Mus musculus, UniProt Q9JJL9); experiment: Measurement of intracellular Ca2+ concentration in mBLT2-expressing CHO cells; conditions: FIG. 4, read-out: EC50 value, rise of the intracellular calcium concentration
T1 construct: mBLT2 ORF was amplified by PCR using a sense primer having BamHI restriction enzyme site; expressed in transfected cells
T1 sequence (Q9JJL9 1-360): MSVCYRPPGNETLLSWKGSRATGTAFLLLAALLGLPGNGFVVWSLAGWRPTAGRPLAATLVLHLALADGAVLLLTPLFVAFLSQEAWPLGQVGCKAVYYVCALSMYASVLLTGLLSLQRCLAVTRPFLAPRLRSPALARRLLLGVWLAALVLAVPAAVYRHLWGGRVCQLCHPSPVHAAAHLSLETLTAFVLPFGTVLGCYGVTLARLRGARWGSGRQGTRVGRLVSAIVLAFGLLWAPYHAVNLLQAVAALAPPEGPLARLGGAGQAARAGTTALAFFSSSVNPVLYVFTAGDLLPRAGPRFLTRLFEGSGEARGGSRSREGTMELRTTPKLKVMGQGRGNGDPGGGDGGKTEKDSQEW
Source text: mBLT2 ORF was amplified by PCR using a sense primer having BamHI restriction enzyme site (sense primer; 5′-[…]-3′ (SEQ ID NO.1)) and an antisense primer having EcoRI restriction enzyme site (antisense primer; 5′-[…]-3′ (SEQ ID NO.2)). The PCR product was digested with BamHI and EcoRI and inserted in expression plasmid (pcDNA3 Invitrogen). The inserted sequence was confirmed by the DNA sequence. Plasmid DNA ([…]) was transfected into CHO cells cultured in Ham's F-12 medium containing 10% fetal bovine serum and antibiotic (streptomycin (100 μg/mL) and penicillin (100 μg/L)) in cell culture plates (6 cm). The resistant strains were obtained by culturing for 2 weeks in the existence of antibiotic (G418 [Wako], 1 mg/mL). […]
mBLT2-expressing CHO cells prepared by Biological Example 3 were cultured in modified Hepes-Tyrode's BSA buffer (Hepes-NaOH (25 mM, pH7.4), NaCl (140 mM), KCl (2.7 mM), CaCl2(10 nM), NaHCO3(12 mM), D-Glucose (5.6 mM), NaH2PO4(0.37 mM), MgCl2(0.49 mM), cremophour (0.01%), fatty acid-free BSA (fraction V, 0.1w/v %)) containing fluorochrome (Fura-2 AM [Dojin], 3 μm) at 37° C. for 2 hours to make to take fluorochrome. […] Dimethylsulfoxide (DMSO) solution (5 μL) containing ligand was added to the cell suspension, of which the intracellular calcium concentration was monitored (excitation wavelength 340 nm and 380 nm and fluorescent wave-length 510 nm).

mBLT1 [2] = biological target: T2, mBLT1 (Mus musculus, UniProt O88855); experiment: Measurement of intracellular Ca2+ concentration in mBLT1-expressing CHO cells; conditions: FIG. 4
T2 construct: expressed in transfected cells; host or cells: CHO cells
T2 sequence (O88855 whole entry): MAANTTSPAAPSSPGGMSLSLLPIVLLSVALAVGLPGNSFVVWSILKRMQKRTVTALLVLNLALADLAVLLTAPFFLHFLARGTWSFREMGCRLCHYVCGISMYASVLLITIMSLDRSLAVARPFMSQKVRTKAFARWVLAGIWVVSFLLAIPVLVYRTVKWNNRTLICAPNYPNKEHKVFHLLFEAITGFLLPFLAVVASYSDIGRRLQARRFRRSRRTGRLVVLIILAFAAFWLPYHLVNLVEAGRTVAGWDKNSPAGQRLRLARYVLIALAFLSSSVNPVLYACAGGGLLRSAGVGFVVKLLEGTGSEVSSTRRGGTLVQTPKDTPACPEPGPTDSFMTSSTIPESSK

mock = experiment: Measurement of intracellular Ca2+ concentration in mock cells; conditions: FIG. 4
Method: mBLT2-expressing CHO cells prepared by Biological Example 3 were cultured in modified Hepes-Tyrode's BSA buffer (Hepes-NaOH (25 mM, pH7.4), NaCl (140 mM), KCl (2.7 mM), CaCl2(10 nM), NaHCO3(12 mM), D-Glucose (5.6 mM), NaH2PO4(0.37 mM), MgCl2(0.49 mM), cremophour (0.01%), fatty acid-free BSA (fraction V, 0.1w/v %)) containing fluorochrome (Fura-2 AM [Dojin], 3 μm) at 37° C. for 2 hours to make to take fluorochrome. These cells were washed 2 times and resuspended (10^6 cells/mL) in Hepes-Tyrode's BSA buffer. The cell suspension (0.5 mL) was applied to fluorescent intensity meter (CAF-100 system [Jasco]). Dimethylsulfoxide (DMSO) solution (5 μL) containing ligand was added to the cell suspension, of which the intracellular calcium concentration was monitored (excitation wavelength 340 nm and 380 nm and fluorescent wave-length 510 nm).

mBLT2 [3] = biological target: T1, mBLT2; experiment: ERK phosphorylation (1) in mBLT2-expressing CHO cells; conditions: ligand 5 minutes, FIG. 5
Source text: mBLT2 ORF was amplified by PCR using a sense primer having BamHI restriction enzyme site (sense primer; 5′-[…]-3′ (SEQ ID NO.1)) and an antisense primer having EcoRI restriction enzyme site (antisense primer; 5′-[…]-3′ (SEQ ID NO.2)). The PCR product was digested with BamHI and EcoRI and inserted in expression plasmid (pcDNA3 Invitrogen). The inserted sequence was confirmed by the DNA sequence. Plasmid DNA ([…]) was transfected into CHO cells cultured in Ham's F-12 medium containing 10% fetal bovine serum and antibiotic (streptomycin (100 μg/mL) and penicillin (100 μg/L)) in cell culture plates (6 cm). The resistant strains were obtained by culturing for 2 weeks in the existence of antibiotic (G418 [Wako], 1 mg/mL). The stable expressing strains were obtained by culturing 19 obtained resistant strains with limiting dilution method.

mBLT1 [4] = biological target: T2, mBLT1; experiment: ERK phosphorylation (1) in mBLT1-expressing CHO cells; conditions: ligand 5 minutes, FIG. 5
[5] = system: mouse primary culture keratinocytes; experiment: ERK phosphorylation (2) in mouse primary culture keratinocytes; conditions: FIG. 7

CCCCC(=O)N(Cc1ccc(-c2ccccc2C(=O)O)cc1)c1ccccc1 [compound A, 4′-{[pentanoyl(phenyl)amino]methyl}-1,1′-biphenyl-2-carboxylic acid]
EC50 (mBLT2 [1]): 21 nM | rise of intracellular calcium concentration (mBLT1 [2]): not rised | rise of intracellular calcium concentration (mock): not rised | ERK phosphorylation (mBLT2 [3]): induced | ERK phosphorylation (mBLT1 [4]): induced | ERK phosphorylation [5]: induced ERK phosphorylation
